According to patent US12429423B2, “L-2-hydroxyglutarate biosensor based on specific transcriptional regulator and application thereof” (SHANDONG UNIVERSITY, priority 2020, dated 2025):

Assays:
[1] = system: LhgR binding to the lhgO promoter (F1); assay: Electrophoretic mobility shift assays (EMSAs) to analyze the effectors of LhgR; set-up: species or system Pseudomonas putida W619; settings: 50 mM compound, 60 nM purified LhgR, 10 nM F1 fragment, 30° C.
Excerpt: The above transcriptional regulator that specifically responds to L-2-hydroxyglutarate (L-2-HG) was obtained in the following way: • (1) analysis of the distribution of lhgO, the gene encoding a key enzyme for L-2-HG catabolism, in the genomes of different strains. A gene encoding a GntR family transcriptional regulator, lhgR, was found directly upstream of lhgO in the genome of Pseudomonas putida W619. lhgR gene was synthesized and cloned into pETDuet-1 vector, and the recombinant plasmid pETDuet-lhgR was introduced into an expression strain Escherichia coli BL21 (DE3), and then LhgR protein was obtained by induction of expression, isolation, and purification; • (2) electrophoretic mobility shift assays were performed to verify and determine the function of the above transcriptional regulator LhgR in Pseudomonas putida W619. Purified LhgR was incubated with different compounds (L-lysine, 5-aminovalerate, glutarate, D-2-HG, 2-ketoglutarate, and succinate), respectively, then the promoter fragment of lhgO was added. The effect on the binding ability of LhgR to the lhgO promoter fragment in the presence of different compounds was analyzed by electrophoretic separation, staining, and imaging.
Using the recombinant plasmid pETDuet-F2-lhgR-F1-lhgO as a template, the promoter region of lhgO (F1) was amplified by PCR using the synthetic primers. The F1 fragment and purified LhgR protein were diluted to 100 nM and 2000 nM using EMSA binding buffer, respectively. 18 μL of EMSA binding buffer containing 60 nM purified LhgR protein and 50 mM of different compounds was incubated for 15 min at 30° C., then 2 μL of F1 fragment at a final concentration of 10 nM was added and incubated for another 30 min at 30° C. 10 μL of the reaction mixture was electrophoresed on a 6% native polyacrylamide gels at 4° C. and 170 volts for approximately 45 minutes, followed by staining with SYBR green I and photographing.
The EMSA binding buffer formulation described in step (2) above was: 10 mM Tris-HCl, 50 mM KCl, 0.5 mM EDTA, 10% glycerol, and 1 mM dithiothreitol, adjusted to pH 7.4. The electrophoresis buffer formulation was: 89 mM Tris, 89 mM boric acid, 2 mM EDTA, adjusted to pH 8.3.

E. coli BL21(DE3) = assay: Real-time detection of intracellular L-2-HG concentration in bacteria; type: cell-based, Escherichia coli; settings: carbon starvation-treated E. coli BL21(DE3) expressing the biosensor, L-2-HG added, 37° C., 5 min interval
Description: The above application was performed by introducing the L-2-HG biosensor-encoding plasmid pETDuet-LHGFR0N3C into an expression strain E. coli BL21 (DE3), shaking the culture and then adding IPTG overnight to induce LHGFR0N3C expression, carbon starvation treatment in inorganic salt medium without carbon source for 8 h to remove intracellular L-2-HG, mixing 90 μL of carbon starvation-treated bacterial solution with 10 μL of gradient concentration of L-2-HG solution, the fluorescence emission intensity of mTFP and Venus and its ratio were measured continuously at 5-minute intervals by a fluorescence microplate reader, and the fluorescence emission ratio increased in response to the addition of L-2-HG, and there was a positive correlation between the change level of fluorescence emission ratio and the concentration of L-2-HG, which can be used as an indicator to achieve real-time detection of dynamic changes in intracellular L-2-HG concentration of bacteria.
The E. coli BL21(DE3)-pETDuet-LHGFR0N3C strain constructed in Example 3 was inoculated in 50 mL of LB medium containing ampicillin resistance and incubated at 37° C. with 180 rpm to an OD600 nm of approximately 0.6. Then, 1 mM IPTG was added, and LHGFR0N3C expression was induced at 16° C. with 160 rpm overnight. […] The fluorescence intensity was detected continuously by using an EnSight microplate reader (PerkinElmer, USA). […]

HEK293FT cells = assay: Detection of intracellular L-2-HG concentration in human cells; type: cell-based; settings: HEK293FT cells expressing the biosensor, permeabilized with 10 μM digitonin, L-2-HG added
Description: The above application was performed by optimizing and synthesizing the nucleotide sequences of LHGFR0N3C and LHGFR0N7C with mammalian codons, adding the kozark sequence, 5′-GCCACC-3′, before the start codon, and ligating it to the pcDNA3.1^(+) plasmid, then the obtained recombinant plasmids pcDNA3.1-LHGFR0N3C and pcDNA3.1-LHGFR0N7C were transfected into HEK293FT cells, respectively. Cells were trypsinized 48 h following transfection, and resuspended in 1× Hank's balanced salt solution supplemented with 20 mM HEPES. Digitonin at a concentration of 10 μM was used to induce cell permeabilization and deplete intracellular L-2-HG for in vivo response curves construction.
The nucleotide sequences of LHGFR0N3C and LHGFR0N7C were optimized for mammalian codons and synthesized by General Biosystem Co., Ltd (Anhui). […] In a black flat-bottomed 96-well plate, 90 μL of the treated cell suspension was mixed with 10 μL of gradient concentration of L-2-HG and the fluorescence intensity was read in a SpectraMax i3 fluorescence plate reader (Molecular Devices, USA). […] The fluorescence intensity of HEK293FT cells not expressing the L-2-HG biosensor was subtracted at each emission wavelength and the dose-response curve in human cells was plotted as the ratio of the corrected fluorescence intensity at 528 nm to the fluorescence intensity at 485 nm.

Row | Compound | effect on the binding of LhgR to the lhgO promoter fragment (EMSA) [1] | detection of intracellular L-2-HG dynamics (fluorescence emission ratio) (E. coli BL21(DE3)) | detection of intracellular L-2-HG (fluorescence emission ratio) (HEK293FT cells)
1 | O=C(O)CC[C@@H](O)C(=O)O [D-2-HG] | could not interfere with the binding of LhgR to DNA fragments |  | 
2 | LHGFR0N3C: L-2-HG biosensor: mTFP-LhgR-Venus fusion with C-terminal truncation of three amino acids of LhgR; SEQ ID NO. 3 |  | able to detect dynamic changes in intracellular L-2-HG concentration of bacteria in real time | able to detect intracellular L-2-HG concentration in human cells
3 | LHGFR0N7C: L-2-HG biosensor: mTFP-LhgR-Venus fusion with C-terminal truncation of seven amino acids of LhgR; SEQ ID NO. 4 |  |  | able to detect intracellular L-2-HG concentration in human cells
4 | NCCCC[C@H](N)C(=O)O [L-lysine] | could not interfere with the binding of LhgR to DNA fragments |  | 
5 | NCCCCC(=O)O [5-aminovalerate] | could not interfere with the binding of LhgR to DNA fragments |  | 
6 | O=C(O)CCC(=O)O [succinate] | could not interfere with the binding of LhgR to DNA fragments |  | 
7 | O=C(O)CC[C@H](O)C(=O)O [L-2-HG, L-2-Hydroxyglutarate] | inhibited the binding of LhgR to the lhgO promoter fragment |  | 
8 | O=C(O)CCC(=O)C(=O)O [2-ketoglutarate] | could not interfere with the binding of LhgR to DNA fragments |  | 
